Laboratory results published in patent US6489315B1, “Cyclic compounds, their production and use” (Takeda Chemical Industries, Ltd., priority 1995, dated 2002).

melting point | Structure (SMILES)
183 to 184 °C | Cc1cnc2c(c1-c1ccccc1)C(=O)N(Cc1ccccc1)CCN(C)C2=O [Example 52, 6-Benzyl-5,6,7,8,9,10-hexahydro-3,9-dimethyl-5,10-dioxo-4-phenylpyrido[2,3-f][1,4]diazocine]
228 to 229 °C | CCN1CCN(Cc2cc(C(F)(F)F)cc(C(F)(F)F)c2)C(=O)c2c(ncc(C)c2-c2ccccc2)C1=O [Example 53, 6-[3,5-Bis(trifluoromethyl)benzyl]-9-ethyl-5,6,7,8,9,10-hexahydro-3-methyl-5,10-dioxo-4-phenylpyrido[2,3-f][1,4]diazocine]
150 to 152 °C | C[C@H]1CN(Cc2cc(C(F)(F)F)cc(C(F)(F)F)c2)C(=O)c2c(-c3ccccc3)c3cccnc3c(=O)n2C1 [Example 13, (9S)-7-[3,5-Bis(trifluoromethyl)benzyl]-6,7,8,9,10,12-hexahydro-9-methyl-6,12-dioxo-5-phenyl[1,4]diazepino[2,1-g][1,7]naphthyridine]
129 to 131 °C | O=C1c2c(-c3ccccc3)cc(CNC3CC3)nc2OCCN1Cc1cc(C(F)(F)F)cc(C(F)(F)F)c1 [Example 46, 4-[3,5-Bis(trifluoromethyl)benzyl]-8-cyclopropylaminomethyl-2,3,4,5-tetrahydro-5-oxo-6-phenylpyrido[3,2-f][1,4]oxazepine]
151 to 153 °C | Cc1cc(-c2ccccc2)c2c(n1)OCCN(Cc1cc(C(F)(F)F)cc(C(F)(F)F)c1)C2=O [Example 33, 4-[3,5-Bis(trifluoromethyl)benzyl)-2,3,4,5-tetrahydro-8-methyl-5-oxo-6-phenylpyrido[3,2-f][1,4]oxazepine]
212 to 213 °C | Cc1ccc(-c2ccnc3c2C(=O)N(Cc2cc(C(F)(F)F)cc(C(F)(F)F)c2)CCO3)cc1 [Example 80, 4-[3,5-Bis(trifluoromethyl)benzyl]2,3,4,5-tetrahydro-5-oxo-6-(4-methylphenyl)pyrido[3,2-f][1,4]oxazepine]
188 to 189 °C | O=C1c2c(-c3ccccc3)ccnc2OCCCN1Cc1cc(C(F)(F)F)cc(C(F)(F)F)c1 [Example 22, 5-[3,5-Bis(trifluoromethyl)benzyl]-2,3,4,5-tetrahydro-6-oxo-7-phenyl-6H-pyrido(2,3-b)[1,5]oxazocine]
181 to 183 °C | Cc1cc(-c2ccccc2)c2c([n+]1[O-])OCCN(Cc1cc(C(F)(F)F)cc(C(F)(F)F)c1)C2=O [Example 35]
142 to 143 °C | C[C@@H]1COc2nccc(-c3ccccc3)c2C(=O)N(Cc2cc(C(F)(F)F)cc(C(F)(F)F)c2)C1 [Example 71, (S)-5-[3,5-Bis(trifluoromethyl)benzyl]-2,3,4,5-tetrahydro-3-methyl-6-oxo-7-phenyl-6H-pyrido[2,3-b][1,5]oxazocine]
